In PMC4096861 (Clinical lymphoma, myeloma & leukemia, 2013):
Read-outs that look alike come from different tables or passages of the source.

How the values were obtained:
[1] = tested on: AML; details: eight of 32 adult AML patients; cited from earlier work
[2] = tested on: Aurora A; details: @ 3 nM; cited from earlier work
[3] = tested on: c-kit; details: @ 250 nM; cited from earlier work
[4] = format: in vivo, human
[5] = tested on: Aurora B; details: @ 3 nM; cited from earlier work
[6] = tested on: bone marrow blasts; assay: Phase 1: efficacy; format: in vivo, human
[7] = tested on: Src; details: read-out: IC50 Src; cited from earlier work
[8] = Phase 1: plasma pharmacokinetics, Cycle 1; format: in vivo, human; details: for clearance / Tmax / AUC(0-inf) / Cmax: human
[9] = tested on: Lck; details: read-out: IC50 Lck; cited from earlier work
[10] = tested on: Fit3; details: @ 15 nM; cited from earlier work
[11] = tested on: aurora kinase B substrate pHH3; assay: Western blot of PBMCs from patient blood; format: in vivo, human
[12] = tested on: RSK-1; details: read-out: IC50 RSK-1; cited from earlier work
[13] = plasma, intravenous, 144 mg/m^2
[14] = plasma, intravenous, 160 mg/m^2
[15] = plasma, intravenous, 200 mg/m^2
[16] = plasma, intravenous, 216 mg/m^2

## CCN(CCCOc1ccc2c(Nc3cc(CC(=O)Nc4cccc(F)c4)n[nH]3)ncnc2c1)CCOP(=O)(O)O [AZD1152]
[1]
  haematologic response according to IWG AML criteria: 25%

## O=C(Nc1c[nH]nc1-c1nc2ccc(CN3CCOCC3)cc2[nH]1)NC1CC1 [AT9283]
[2]
  inhibition of Aurora A: […]
[3]
  inhibition of c-kit: […]
[4]; 13 deaths of 48 patients
  deaths: […]
[4]; 72-hour continuous infusion every 21 days
  MTD: […]
[4]; 72-hour infusion
  MTD: […]
[4]; human, in vivo
  AE incidence overall: gastrointestinal disorders: 75%
[4]; human, in vivo, 72 h
  incidence of AEs (highest): […]
  incidence of AEs (lowest): […]
[4]; in vivo
  DLTs: myocardial infarction, hypertension, cardiomyopathy, tumor lysis syndrome, pneumonia, and multiorgan failure
  tolerability of regimen: unacceptably toxic
[5]
  inhibition of Aurora B: […]
[6]; Patient B, MTD 108 mg/m^2/day over 72h, 2 cycles, 62% at baseline v 32% at follow-up
  reduction in bone marrow blasts: […]
[6]; all patients
  objective remission (complete and partial): no objective or partial remissions were observed
[6]; approximately one-third of patients with relapsed/refractory AML
  reduction in bone marrow blasts: […]
[6]; both patients with accelerated phase CML, cytogenetic response in 1
  benefit in accelerated phase CML: evidence of benefit
[6]; patients with myeloproliferative disease
  benefit in myeloproliferative disease: no sustained evidence of treatment benefit
[7]
  IC50: 97 nM
[8]; Cmax and AUC0-inf
  dose proportionality of exposure: generally proportional to dose
[8]; in vivo
  clearance: […]
[8]; in vivo, Tmax
  Tmax: […]
[8]; in vivo, Tmax of mean maximum plasma concentrations
  Tmax: […]
[8]; plasma, intravenous, 9 mg/m^2
  Cmax: 7.35 ng/mL
[8]; plasma, intravenous, 9 mg/m^2, Tmax, Cycle 1 mean plasma, 9 mg/m^2, 72 hr infusion (n=3)
  Tmax: […]
[8]; plasma, intravenous, 18 mg/m^2
  AUC(0-inf): […]
  Cmax: […]
  clearance: […]
[8]; plasma, intravenous, 18 mg/m^2, Tmax, Cycle 1 mean plasma, 18 mg/m^2, 72 hr infusion (n=3)
  Tmax: […]
[8]; plasma, intravenous, 36 mg/m^2
  AUC(0-inf): […]
  Cmax: […]
  clearance: […]
[8]; plasma, intravenous, 36 mg/m^2, Tmax, Cycle 1 mean plasma, 36 mg/m^2, 72 hr infusion (n=7)
  Tmax: […]
[8]; plasma, intravenous, 72 mg/m^2
  AUC(0-inf): […]
  Cmax: […]
  clearance: […]
[8]; plasma, intravenous, 72 mg/m^2, Tmax, Cycle 1 mean plasma, 72 mg/m^2, 72 hr infusion (n=3)
  Tmax: […]
[8]; [13]
  AUC(0-inf): […]
  Cmax: […]
  clearance: […]
[8]; plasma, intravenous, 144 mg/m^2, Tmax, Cycle 1 mean plasma, 144 mg/m^2, 72 hr infusion (n=4)
  Tmax: […]
[8]; [14]
  AUC(0-inf): […]
  Cmax: […]
  clearance: […]
[8]; plasma, intravenous, 160 mg/m^2, Tmax, Cycle 1 mean plasma, 160 mg/m^2, 96 hr infusion (n=12)
  Tmax: […]
[8]; [15]
  AUC(0-inf): […]
  Cmax: […]
  clearance: […]
[8]; plasma, intravenous, 200 mg/m^2, Tmax, Cycle 1 mean plasma, 200 mg/m^2, 120 hr infusion (n=4)
  Tmax: […]
[8]; [16]
  AUC(0-inf): […]
  Cmax: […]
  clearance: […]
[8]; plasma, intravenous, 216 mg/m^2, Tmax, Cycle 1 mean plasma, 216 mg/m^2, 72 hr infusion (n=3)
  Tmax: […]
[8]; plasma, intravenous, 486 mg/m^2
  Cmax: […]
[8]; plasma, intravenous, 486 mg/m^2, Tmax, Cycle 1 mean plasma, 486 mg/m^2, 72 hr infusion (n=3)
  Tmax: […]
[9]
  IC50: 63 nM
[10]
  inhibition of Fit3: […]
[11]; 3 mg/m^2/day (9 mg/m^2/72h), two of three patients
  pHH3 phosphorylation in PBMCs: inhibition of pHH3 phosphorylation was observed
[11]; MTD 108 mg/m^2/day (324 mg/m^2/72h), two of three patients
  phosphorylation of aurora kinase B substrate pHH3 in PBMCs: rapid inhibition of phosphorylation
[11]; MTD, both patients
  duration of pHH3 inhibition following treatment: […]
[12]
  IC50: […]
